Columns and labels:
Assay type in all cases: in vivo
[1] = system: green peach aphid (Myzus persicae); assay: Myzus persicae oral test; conditions: 120 h
Description: Solvent: 100 parts by weight acetone
To produce a suitable preparation of active compound, 1 part by weight of active compound is mixed with the stated amount of solvent, and the concentrate is diluted with water to the desired concentration.
50 μL compound solution is filled in microtiter plates and 150 μL IPL41 insect medium (33%+15% sugar) is added to obtain a total volume of 200 μL per well. Afterwards the plates are sealed with parafilm through which a mixed population of the green peach aphid (Myzus persicae) can suck on the compound preparation.
After 5 days mortality in % is determined. 100% means all aphids have been killed and 0% means none of the aphids have been killed.

[2] = system: adult engorged female ticks (Rhipicephalus microplus); assay: Rhipicephalus (Boophilus) microplus injection test; conditions: 168 h, egg deposition after 7 days, read-out: efficacy (infertile eggs); for pest or weed control at 0.004 mg: 4 μg/animal; for pest or weed control at 0.02 mg: 20 μg/animal
Description: (§1) Solvent: dimethyl sulfoxide
To produce a suitable preparation of active compound, 10 mg of active compound are dissolved in 0.5 mL solvent, and the concentrate is diluted with solvent to the desired concentration.
Five adult engorged female ticks (Rhipicephalus microplus) are injected with 1 μL compound solution into the abdomen. The ticks are transferred into replica plates and incubated in a climate chamber.
After 7 days egg deposition of fertile eggs is monitored. Eggs where fertility is not visible are stored in a climate chamber till hatching after about 42 days. An efficacy of 100% means all eggs are infertile; 0% means all eggs are fertile.

[3] = system: larvae of the southern green stink bug (Nezara viridula); assay: Nezara viridula spray test; conditions: in Hordeum vulgare, 96 h
Description: (§2) Solvent: 78.0 parts by weight of acetone • • 1.5 parts by weight of dimethylformamide
(§3) Emulsifier: alkylarylpolyglycol ether
(§4) To produce a suitable preparation of active compound, 1 part by weight of active compound is mixed with the stated amount of solvent, and the concentrate is diluted with water, containing an emulsifier concentration of 1000 ppm, to the desired concentration. Further test concentrations are prepared by dilution with emulsifier containing water.
Barley plants (Hordeum vulgare) infested with larvae of the southern green stink bug (Nezara viridula) are sprayed with a test solution containing the desired concentration of the active ingredient.
After 4 days mortality in % is determined. 100% means all the stink bugs have been killed; 0% means none of the stink bugs have been killed.

[4] = system: adult unfed cat fleas (Ctenocephalides felis); assay: Ctenocephalides felis oral test; conditions: 48 h, 100 ppm in cattle blood, after 2 days
Description: as §1
To produce a suitable preparation of active compound, 10 mg of active compound are dissolved in 0.5 mL solvent, and the concentrate is diluted with cattle blood to the desired concentration.
Approximately 20 adult unfed cat fleas (Ctenocephalides felis) are placed in flea chambers. The blood chamber, sealed with parafilm on the bottom, are filled with cattle blood supplied with compound solution and placed on the gauze covered top of the flea chamber, so that the fleas are able to suck the blood. The blood chamber is heated to 37° C. whereas the flea chamber is kept at room temperature.
After 2 days mortality in % is determined. 100% means all the fleas have been killed; 0% means none of the fleas have been killed.

[5] = system: larvae of the banded cucumber beetle (Diabrotica balteata); assay: Diabrotica balteata spray test; conditions: 168 h, 100 g/ha (=32 μg/well), after 7 days, wheat seeds, read-out: efficacy (seedlings grown up)
Description: as §2, §3, §4
Soaked wheat seeds (Triticum aestivum) are placed in a multiple well plate filled with agar and some water and are incubated for 1 day to germinate (5 seeds per well). The germinated wheat seeds are sprayed with a test solution containing the desired concentration of the active ingredient. Afterwards each unit is infected with 10-20 larvae of the banded cucumber beetle (Diabrotica balteata).
After 7 days efficacy in % is determined. 100% means all the seedlings have grown up like in the untreated, uninfected control; 0% means none of the seedlings have grown.

[6] = system: fall armyworm larvae (Spodoptera frugiperda); assay: Spodoptera frugiperda spray test (maize leaf sections); conditions: 168 h
Description: Solvent: 78.0 parts by weight acetone • 1.5 parts by weight dimethylformamide
as §3
To produce a suitable preparation of active compound, 1 part by weight of active compound is mixed with the stated amount of solvents and is diluted with water, containing an emulsifier concentration of 1000 ppm, to the desired concentration. Further test concentrations are prepared by dilution with emulsifier containing water.
Maize (Zea mays) leaf sections are sprayed with a preparation of the active ingredient of the desired concentration. Once dry, the leaf sections are infested with fall armyworm larvae (Spodoptera frugiperda).
After 7 days mortality in % is determined. 100% means all caterpillars have been killed and 0% means none of the caterpillars have been killed.

[7] = system: cattle tick larvae (Rhipicephalus microplus), strain Parkhurst, resistant against synthetic pyrethroids; assay: Rhipicephalus (Boophilus) microplus in-vitro contact test, larval cattle tick; conditions: 5 μg/cm^2 (=500 g/ha), after 48 hours, read-out: efficacy (larvae dead or moribund)
Description: (§5) 9 mg compound is solved in 1 mL acetone and diluted with acetone to the desired concentration. 250 μL of the test solution is filled in 25 mL glass test tubes and homogeneously distributed on the inner walls by rotation and tilting on a shaking device (2 h at 30 rpm). With a compound concentration of 900 ppm, an inner surface of 44.7 cm^2 and a homogeneous distribution, a dose of 5 μg/cm^2 is achieved.
After the solvent has evaporated, each test tube is filled with 20-50 cattle tick larvae (Rhipicephalus microplus), closed with a perforated lid and incubated in a horizontal position at 85% relative humidity and 27° C. in an incubator. After 48 hours efficacy is determined. The larvae are patted on the ground of the tubes and negative geotactic behaviour is recorded.
An efficacy of 100% means all larvae are dead or moribund; 0% means no larvae are dead or moribund.

[8] = system: adult brown dog ticks (Rhipicephalus sanguineus); assay: Rhipicephalus sanguineus in-vitro contact test with adult brown dog ticks; conditions: after 48 hours, read-out: efficacy (ticks dead or moribund); for pest or weed control at 5 µg/cm2, 500 g/ha: 5 μg/cm^2 (=500 g/ha)
Description: as §5
After the solvent has evaporated, each test tube is filled with 5-10 adult brown dog ticks (Rhipicephalus sanguineus), closed with a perforated lid and incubated in a lying position at room temperature and relative humidity. After 48 hours efficacy is determined. The ticks are patted on the ground of the tubes and are incubated on a heating plate at 45-50° C. for at most 5 minutes. Immotile or uncoordinated moving ticks, which are not able to escape the heat by climbing upwards, are marked as dead or moribund.
An efficacy of 100% means all ticks are dead or moribund; 0% means no ticks are dead or moribund.

SMILES	mortality at 4 ppm [1]	pest or weed control at 0.004 mg [2]	mortality at 100 ppm [4]	pest or weed control at 32 µg/disc, 100 g/ha [5]	mortality at 100 g/ha [6]	also measured
CC(NC(=O)c1cc(Cl)cc(S(C)(=O)=O)c1)c1nc(NS(C)(=O)=O)nn1-c1ccc(Cl)cn1 (racemic) [I-025, 3-chloro-N-[1-[2-(5-chloro-2-pyridyl)-5-(methanesulfonamido)-1,2,4-triazol-3-yl]ethyl]-5-methylsulfonyl-benzamide]	90%	–	–	–	–	–
CC(NC(=O)c1cc(Cl)cc(S(C)(=O)=O)c1)c1nc(S(C)(=O)=O)nn1-c1ccc(Cl)cn1 (racemic) [I-060, 3-chloro-N-[1-[2-(5-chloro-2-pyridyl)-5-methylsulfonyl-1,2,4-triazol-3-yl]ethyl]-5-methylsulfonyl-benzamide]	100%	100%	–	–	–	pest or weed control at 0.02 mg [2]: 100%; mortality at 100 g/ha [3]: 100%; mortality at 500 g/ha [3]: 100%
CC(NC(=O)c1cc(Cl)cc(C(F)(F)F)c1)c1nc(C(N)=O)nn1-c1ncccn1 (single isomer, unassigned) [I-074, 5-[1-[[3-chloro-5-(trifluoromethyl)benzoyl]amino]ethyl]-1-pyrimidin-2-yl-1,2,4-triazole-3-carboxamide]	100%	100%	100%	–	–	mortality at 100 g/ha [3]: 100%
CC(NC(=O)c1cc(Cl)cc(C(F)(F)F)c1)c1nc(C#N)nn1-c1ncccn1 (single isomer, unassigned) [I-080, 3-chloro-N-[1-(5-cyano-2-pyrimidin-2-yl-1,2,4-triazol-3-yl)ethyl]-5-(trifluoromethyl)benzamide]	90%	100%	100%	100%	–	–
CC(NC(=O)c1cc(Cl)cc(S(C)(=O)=O)c1)c1nc(N)nn1-c1ccc(Cl)cn1 (centres unmarked) [I-005]	90%	100%	100%	–	–	pest or weed control at 0.02 mg [2]: 100%
CC(NC(=O)c1cc(Cl)cc(C(F)(F)F)c1)c1nc(NC(=O)C2(Cl)CC2)nn1-c1ccc(Cl)cn1 (centres unmarked) [I-014]	–	100%	100%	–	100%	pest or weed control at 0.02 mg [2]: 100%; mortality at 500 g/ha [6]: 100%; pest or weed control at 5 µg/cm2 [7]: 100%
CC(NC(=O)c1cc(Cl)cc(S(C)(=O)=O)c1)c1nc(NC(=O)C2(Cl)CC2)nn1-c1ncccn1 (centres unmarked) [I-020]	90%	100%	100%	–	–	–
CC(NC(=O)c1cc(Cl)cc(C(F)(F)F)c1)c1nc(NC(=O)C2CC2)nn1-c1ncccn1 (centres unmarked) [I-023]	100%	–	–	100%	100%	mortality at 100 g/ha [3]: 90%
CC(NC(=O)c1cc(Cl)cc(C(F)(F)F)c1)c1nc(NC(=O)[C@@H]2C[C@@H]2F)nn1-c1ncccn1 (some centres unmarked) [I-024]	100%	–	–	100%	100%	–
CC(NC(=O)c1cc(Cl)cc(C(F)(F)F)c1)c1nc(-c2ccc(Cl)nc2)nn1-c1ccc(Cl)cn1 (centres unmarked) [I-032]	–	–	–	–	–	pest or weed control at 5 µg/cm2, 500 g/ha [8]: 80%
CC(NC(=O)c1cc(Br)cc(C(F)(F)F)c1)c1nc(-c2cnccn2)nn1-c1ccc(Cl)cn1 (centres unmarked) [I-036]	–	–	100%	–	100%	pest or weed control at 0.02 mg [2]: 100%; mortality at 500 g/ha [6]: 100%; pest or weed control at 5 µg/cm2 [7]: 100%
CC(NC(=O)c1cncc(C(F)(F)F)c1)c1nc(-c2ncccn2)nn1-c1ncccn1 (centres unmarked) [I-053]	90%	–	100%	–	–	–
CC(NC(=O)c1cc(Cl)cc(S(C)(=O)=O)c1)c1nc(-c2ccco2)nn1-c1ncccn1 (centres unmarked) [I-057]	100%	80%	100%	–	–	pest or weed control at 0.02 mg [2]: 100%
CC(NC(=O)c1cc(Cl)cc(C(F)(F)F)c1)c1nc(C#N)nn1-c1ccc(C#N)cn1 (centres unmarked) [I-081]	–	100%	90%	100%	–	pest or weed control at 5 µg/cm2 [7]: 100%
CC(NC(=O)c1cc(Br)cc(Br)c1)c1nc(N)nn1-c1ncccn1 (centres unmarked) [I-094]	100%	–	–	–	100%	–
CC(NC(=O)c1cc(Cl)cc(Br)c1)c1nc(N)nn1-c1ncccn1 (centres unmarked) [I-108]	100%	–	–	100%	100%	pest or weed control at 5 µg/cm2 [7]: 90%
CNc1nc([C@H](C)NC(=O)c2cc(C(F)(F)F)cc(C(F)(F)F)c2)n(-c2ncc(C(=O)N3CCOCC3)s2)n1 [I-126, N-[(1S)-1-[5-(methylamino)-2-[5-(morpholine-4-carbonyl)thiazol-2-yl]-1,2,4-triazol-3-yl]ethyl]-3,5-bis(trifluoromethyl)benzamide]	–	–	–	100%	100%	pest or weed control at 5 µg/cm2, 500 g/ha [8]: 80%; mortality at 500 g/ha [3]: 100%
CC(NC(=O)c1cc(Cl)cc(C(C)(C)C#N)c1)c1nc(N2CCOCC2)nn1-c1ccc(C#N)cn1 (centres unmarked) [I-159]	–	–	–	100%	100%	pest or weed control at 1 µg/cm2, 100 g/ha ([8]; 1 μg/cm^2 (=100 g/ha)): 100%; pest or weed control at 5 µg/cm2 [7]: 100%; mortality at 500 g/ha [3]: 90%

From patent US20230028441A1, “NOVEL HETEROARYL-TRIAZOLE COMPOUNDS AS PESTICIDES” (Bayer Aktiengesellschaft, priority 2019, published 2023)
